Data as given in US7329649B2, “Combinatorial methods for inducing cancer cell death” (The Trustees of Columbia University in the City of New York, priority 2001, dated 2008).

System: mutated or wild type K-ras expressing pancreatic carcinoma cells
Test: Cell growth and viable cell numbers (hemocytometer, MTT)
Assay type: cell-based, human
Method: FIG. 5. […] Cells were treated with the indicated agents for three days and viable cell counts were determined by hemocytometer.
Cell lines, culture conditions and growth assays.

| Substance | growth suppression compared with AS K-ras PS ODN |
| --- | --- |
| MM PS ODN: mismatched K-ras PS ODN CACTTGCAAATATTCAGT (SEQ ID NO:16) (DNA, all phosphorothioate, methylation of C not given here) | significantly less growth suppression |
| SC PS ODN: scrambled K-ras PS ODN ACTAGCTATACTAGCTAT (SEQ ID NO:17) (DNA, all phosphorothioate, methylation of C not given here) | significantly less growth suppression |
